Measurements taken from publication PMC9832530 (FASEB BioAdvances, 2022).

Target: T1, drFtsZ (FtsZWT) (Deinococcus radiodurans, UniProt Q9RWN5)
T1 sequence (Q9RWN5 1-371): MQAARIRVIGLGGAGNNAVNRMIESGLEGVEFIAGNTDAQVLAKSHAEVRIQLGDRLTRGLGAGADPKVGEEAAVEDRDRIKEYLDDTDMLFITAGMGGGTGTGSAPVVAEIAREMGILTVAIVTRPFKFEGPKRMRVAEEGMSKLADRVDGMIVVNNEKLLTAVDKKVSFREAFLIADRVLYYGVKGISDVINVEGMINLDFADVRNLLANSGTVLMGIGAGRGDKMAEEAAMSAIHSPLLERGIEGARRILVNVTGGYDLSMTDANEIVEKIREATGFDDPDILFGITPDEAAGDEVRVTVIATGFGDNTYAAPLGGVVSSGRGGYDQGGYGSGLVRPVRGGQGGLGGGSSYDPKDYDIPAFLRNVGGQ
Experiment: GTPase, [alpha-32P]-GTP to GDP by TLC
Format: biochemical
Conditions: 20 mM Tris-HCl pH 7.5, 75 mM KCl, MgCl2, 37 °C, 20 min; labelled compound

Nc1nc2c(ncn2[C@@H]2O[C@H](COP(=O)(O)OP(=O)(O)OP(=O)(O)O)[C@@H](O)[C@H]2O)c(=O)[nH]1 [GTP]
GTPase, [alpha-32P]-GTP to GDP by TLC: The GTPase activity of S235 and S335 mutants were estimated using thin‐layer chromatography
